Measurements reported in US20150335609A1, “COMBINATIONS OF HISTONE DEACETYLASE INHIBITOR AND PAZOPANIB AND USES THEREOF” (Pharmacyclics, Inc., priority 2012, published 2015).
Like-named read-outs stand apart in the source and are kept apart here.

Key:
RAD51 = assay: Pre-clinical models, expression of DNA repair genes
Excerpt: Following chemotherapy and/or radiation treatment, some patient's tumors may turn on certain genes as a strategy by the tumor to adapt to the therapy and become resistant to cell death. One example of a genetic change that occurs in many cancers is the activation of the DNA repair gene RAD51. In response to treatment with DNA-damaging chemotherapy or radiation, tumors will often turn on DNA repair genes (including RAD51) as an adaptive strategy to help the tumor repair the DNA damage done by these agents.

[1] = Clinical pharmacokinetics of abexinostat, IV and oral dosing; conditions: human, in vivo; for bioavailability: humans; for AUC(0-inf): humans with cancer, solution form, read-out: Systemic exposure measured as AUC0-∞
Protocol: In clinical trials involving humans with cancer, abexinostat in solution form was administered at 2 mg/kg as a single oral dose and as multiple 2-hour IV infusion doses.

[2] = system: lung, colon, prostate, pancreatic and brain tumors; assay: Mouse tumor models; type: in vivo
tumor cell lines = assay: In vitro activity against tumor cell lines; type: cell-based
[3] = Site of absorption of abexinostat
primary human tumors = assay: Ex vivo activity in primary human tumors; type: cell-based; conditions: tumors from patients
[4] = Incidence of thrombocytopenia by dosing frequency; type: in vivo, human; conditions: twice a day dosing compared to three times a day dosing
Protocol: In some embodiments, abexinostat (or a salt thereof; e.g., abexinostat HCl) is administered once per day during a cycle of abexinostat (or a salt thereof; e.g., abexinostat HCl). In some embodiments, abexinostat (or a salt thereof; e.g., abexinostat HCl) is administered twice per day during a cycle of abexinostat (or a salt thereof; e.g., abexinostat HCl). In some embodiments, abexinostat (or a salt thereof; e.g., abexinostat HCl) is administered three times per day during a cycle of abexinostat (or a salt thereof; e.g., abexinostat HCl).
In certain instances, thrombocytopenia is a side effect observed in humans that receive treatment with HDAC inhibitor compounds. Grade 4 thrombocytopenia typically includes instances when the human has a platelet count less than 25,000 per […]. Thrombocytopenia may be ameliorated or avoided by lowering the daily dose of abexinostat. In some embodiment, a method disclosed herein further comprises an abexinostat (or a salt thereof; e.g., abexinostat HCl) drug holiday following an abexinostat (or a salt thereof; e.g., abexinostat HCl) cycle.

[5] = Pharmacokinetics in laboratory animals, fasted state versus fed state; type: in vivo

## CN(C)Cc1c(C(=O)NCCOc2ccc(C(=O)NO)cc2)oc2ccccc12 [abexinostat, N-hydroxy-4-{2-[3-(N,N-dimethylaminomethyl)benzofuran-2-ylcarbonylamino]ethoxy}-benzamide]
RAD51
  effect on RAD51 (and other DNA repair genes): able to turn off RAD51
[1]; 2 mg/kg, administered as immediate release capsules or an oral solution
  bioavailability: ~27%
[1]; 2 mg/kg, multiple 2-hour IV infusion doses
  AUC(0-inf): 5.9 µM·h
[1]; 2 mg/kg, single oral dose
  AUC(0-inf): 1.45 µM·h
[1]; from AUC0-∞ of oral versus IV dosing at 2 mg/kg
  bioavailability: ~27%
[2]
  efficacy in mouse tumor models: efficacious in mouse models of lung, colon, prostate, pancreatic and brain tumors
Tumor cell lines
  activity against tumor cell lines: active against many tumor cell lines
[3]
  site of absorption: preferentially absorbed in the intestines
Primary human tumors
  activity in primary human tumors: active in primary human tumors from patients with colon, ovarian, lung and many hematological cancers
[4]
  incidences of thrombocytopenia: reduces the incidences of thrombocytopenia
[5]
  pharmacokinetics, fasted state versus fed state: difference in pharmacokinetics was observed
